Laboratory results as given in patent US20240116877A1, “KIT KINASE INHIBITORS AND METHODS OF USE THEREOF” (Deciphera Pharmaceuticals, LLC, priority 2021, published 2024).
Read-outs that look alike come from different tables or passages of the source.

How the values were obtained:
[1] = target: c-KIT kinase (uKIT) (Homo sapiens (Human), UniProt P10721); assay: Biochemical Assay for uKIT (coupled pyruvate kinase/lactate dehydrogenase assay); settings: Inhibition of biochemical activity of uKIT kinase; 1 mM ATP
Protocol: Biochemical Assay for uKIT
Activity of c-KIT kinase (SEQ. ID NO. 1 or SEQ. ID NO. 2) was determined spectroscopically using a coupled pyruvate kinase/lactate dehydrogenase assay that continuously monitors the ATP hydrolysis-dependent oxidation of NADH (e.g., Schindler et al. Science (2000) 289: 1938-1942). Assays were conducted in 384-well plates (100 μL final volume) using 16 nM (Decode, SEQ ID No. 1) or 4.36 nM (Signal Chem, SEQ. ID No. 2), 0.7 mg/mL PE4Y substrate, 1.5 units pyruvate kinase, 2.1 units lactate dehydrogenase, 1 mM phosphoenol pyruvate, 0.28 mM NADH and 1 mM ATP in assay buffer (100 mM Tris, pH 7.5, 15 mM MgCl2, 0.5 mM DTT, 0.1% octyl-glucoside, 0.002% (w/v) BSA, and 0.002% Triton X-100). Inhibition of KIT was measured by adding serial diluted test compound (final assay concentration of 1% DMSO). A decrease in absorption at 340 nm was monitored continuously for 6 h at 30° C. on a multi-mode microplate reader (BioTek). The reaction rate was calculated using the 2-3 h time frame. The reaction rate at each concentration of compound was converted to percent inhibition using controls (i.e., reaction with no test compound and reaction with a known inhibitor) and IC50 values were calculated using software routines in Prism (GraphPad software).

[2] = test system: Ba/F3 KIT mutant cells; assay: Ba/F3 mutant KIT Cell Proliferation Assays (resazurin); assay type: cell-based; settings: Mus musculus, BaF3
Protocol: Ba/F3 KIT Mutant Cell Line Transduction and Expansion
Several different KIT cDNA encoding various primary and secondary mutations were cloned into a pLV(Exp]-CMV>(cDNA):IRES:puro vector. These vectors were constructed and packaged by VectorBuilder.
Exponentially grown Ba/F3 cells (1×10^6 cells in 1 ml medium) were infected with 60 μl of viral suspension in a 6-well plate in the presence of mIL-3 (10 ng/ml) and polybrene (7.5 μg/ml) (Vector Builder) and incubated for 16 h. After 16 h, the cells were centrifuged, and viral supernatant was discarded. The cells were then re-suspended in fresh medium and allowed to recover for another day. After 72 h post infection, the cells were seeded with complete medium with mIL-3 and with 1 μg/ml puromycin added to medium for selection. After 48 h, cells without viral infection die, whereas successfully transduced cells were collected and changed to fresh medium with 5 ng/ml of IL-3. After a week or two with gradual withdrawal of mIL3 the cells that can continue to proliferate in the absence of mIL3 were exponentially expanded and were frozen down for banking.
Ba/F3 mutant KIT Cell Proliferation Assays
(§1) A serial dilution of test compound was dispensed into a 384-well black clear bottom plate (Corning, Corning, NY). Six hundred and twenty-five cells were added per well in 50 μL complete growth medium. Plates were incubated for 68 h at 37° C., 5% CO2, 95% humidity. At the end of the incubation period 10 μL of a 440 μM solution of resazurin (Sigma, St. Louis, MO) in PBS was added to each well and incubated for an additional 5 h at 37° C., 5% CO2, 95% humidity. Plates were read on a Synergy2 reader (Biotek, Winooski, VT) using an excitation of 540 nm and an emission of 600 nm. Data was analyzed using Prism software (Graphpad, San Diego, CA) to calculate IC50 values.

[3] = test system: GIST 430 cells; assay: GIST 430 Cell Proliferation Assay (resazurin); assay type: cell-based; settings: Homo sapiens; GIST430 cell proliferation
Protocol: GIST 430 Cell Proliferation Assay
as §1, with “a 96-well” for “a 384-well”, “NY). Five thousand” for “NY). Six hundred and twenty-five”, “in 200” for “in 50”, “for 115” for “for 68”, “at 37 degrees Celsius,” for “at 37° C.,”, “period 40” for “period 10”

[4] = Ba/F3 KIT AYdup mutant cell proliferation, read-out: AYdup IC50
[5] = Ba/F3 KIT AYdup-D816G mutant cell proliferation, read-out: AYdup-D816G IC50
[6] = Ba/F3 KIT AYdup-V654A mutant cell proliferation, read-out: AYdup-V654A IC50
[7] = Ba/F3 KIT exon11del-V654A mutant cell proliferation, read-out: exon11del-V654A IC50
[8] = Ba/F3 KIT exon11del-Y823D mutant cell proliferation, read-out: exon11del-Y823D IC50

Sequence of c-KIT kinase (uKIT) (P10721 other isoform, or with tags, fused parts or gaps): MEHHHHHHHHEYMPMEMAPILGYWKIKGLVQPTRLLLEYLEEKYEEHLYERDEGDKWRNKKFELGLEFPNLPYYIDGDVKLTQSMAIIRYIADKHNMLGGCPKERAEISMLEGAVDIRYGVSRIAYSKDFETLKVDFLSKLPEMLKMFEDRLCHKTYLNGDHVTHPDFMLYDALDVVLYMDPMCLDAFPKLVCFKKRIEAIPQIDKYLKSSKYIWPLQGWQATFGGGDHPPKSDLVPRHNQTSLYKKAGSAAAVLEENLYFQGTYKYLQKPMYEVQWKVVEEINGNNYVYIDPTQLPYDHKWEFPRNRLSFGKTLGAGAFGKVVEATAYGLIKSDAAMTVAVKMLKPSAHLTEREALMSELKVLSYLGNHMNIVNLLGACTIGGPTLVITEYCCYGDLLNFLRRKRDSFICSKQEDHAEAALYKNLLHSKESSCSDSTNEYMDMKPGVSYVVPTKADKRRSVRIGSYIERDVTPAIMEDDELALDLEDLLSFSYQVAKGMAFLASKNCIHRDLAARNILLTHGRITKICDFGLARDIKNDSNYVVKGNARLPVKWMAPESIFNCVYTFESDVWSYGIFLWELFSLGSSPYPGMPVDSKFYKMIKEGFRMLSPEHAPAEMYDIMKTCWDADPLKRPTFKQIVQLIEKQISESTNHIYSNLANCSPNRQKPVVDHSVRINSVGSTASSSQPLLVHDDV

| IC50 [1] [nM] | IC50 [2, 4] [nM] | IC50 [2, 5] [nM] | IC50 [2, 6] [nM] | IC50 [2, 7] [nM] | IC50 [2, 8] [nM] | Compound | IC50 [3] [nM] |
| --- | --- | --- | --- | --- | --- | --- | --- |
| 10 to 100 | ≤ 10 | 10 to 100 | 10 to 100 | ≤ 10 | 10 to 100 | COCCOc1cc(F)c2c(Nc3ccc(NC(=O)CC(=O)NC(C)(C)C4CC4)cc3)ncnc2c1 [Example 131] | 10 to 100 |
| 10 to 100 | – | – | 100 to 1000 | 100 to 1000 | 100 to 1000 | COCCOc1cc(F)c2c(Nc3ccc(NC(=O)CC(=O)N4CCOCC4(C)C)cc3)ncnc2c1 [Example 154] | 10 to 100 |
| ≤ 10 | – | – | 10 to 100 | 10 to 100 | 10 to 100 | COCCOc1cc(F)c2c(Nc3ccc(NC(=O)COCC4CCCC4)cc3)ncnc2c1 [Example 56] | ≤ 10 |
| 10 to 100 | – | – | 100 to 1000 | 10 to 100 | > 1000 | COCCOc1cc(F)c2c(Nc3ccc(NC(=O)CC(=O)NCC4(C)CCCO4)cc3)ncnc2c1 (stereo not shown) [Example 110] | 10 to 100 |
| 10 to 100 | – | – | 10 to 100 | 10 to 100 | 100 to 1000 | COCCOc1cc(F)c2c(Nc3ccc(NC(=O)CC(=O)NC(C)(C)C)cc3)ncnc2c1 [Example 124] | 10 to 100 |
| 10 to 100 | – | 10 to 100 | 10 to 100 | 100 to 1000 | 100 to 1000 | COCCOc1cc(F)c2c(Nc3ccc(NC(=O)NC4CCC(F)(F)CC4)cc3)ncnc2c1 [Example 33] | 10 to 100 |
| 10 to 100 | – | – | 100 to 1000 | 10 to 100 | 10 to 100 | COCCOc1cc(F)c2c(Nc3ccc(NC(=O)CCC(=O)N(C)C(C)C)cc3)ncnc2c1 [Example 67] | 100 to 1000 |
| ≤ 10 | ≤ 10 | 10 to 100 | 10 to 100 | 10 to 100 | 10 to 100 | CO[C@H](C)COc1cc(F)c2c(Nc3ccc(NC(=O)NCCC(C)(C)F)cc3)ncnc2c1 [Example 156] | 10 to 100 |
| ≤ 10 | ≤ 10 | 10 to 100 | 10 to 100 | 10 to 100 | 10 to 100 | CC(C)(F)CCNC(=O)Nc1ccc(Nc2ncnc3cc(OC[C@@H]4CCCO4)cc(F)c23)cc1 [Example 162] | 10 to 100 |
| ≤ 10 | ≤ 10 | 10 to 100 | 10 to 100 | 10 to 100 | 10 to 100 | CC(C)(F)CCNC(=O)Nc1ccc(Nc2ncnc3cc(OCCN4CCOCC4)cc(F)c23)cc1 [Example 39] | ≤ 10 |
| ≤ 10 | – | – | > 1000 | ≤ 10 | 100 to 1000 | COCCOc1cc(F)c2c(Nc3ccc(NC(=O)CC(=O)NCC4CCC4)cc3)ncnc2c1 [Example 90] | 10 to 100 |
| ≤ 10 | ≤ 10 | 10 to 100 | 10 to 100 | 10 to 100 | 10 to 100 | COCCOc1cc(F)c2c(Nc3ccc(NC(=O)CC4CCC(F)(F)CC4)cc3)ncnc2c1 [Example 41] | 10 to 100 |
| ≤ 10 | – | – | 10 to 100 | 10 to 100 | ≤ 10 | COCCOc1cc(OC)c2c(Nc3ccc(NC(=O)NCCC(C)(C)F)cc3)ncnc2c1 [Example 181] | 10 to 100 |
| ≤ 10 | – | – | 10 to 100 | 10 to 100 | 10 to 100 | CC(C)(F)CCNC(=O)Nc1ccc(Nc2ncnc3cc(OC4COC4)cc(F)c23)cc1 [Example 175] | 10 to 100 |
| 10 to 100 | – | – | 10 to 100 | 10 to 100 | > 1000 | COCCOc1cc(F)c2c(Nc3ccc(NC(=O)CC(=O)NCC(C)C)cc3)ncnc2c1 [Example 81] | 10 to 100 |
| ≤ 10 | – | – | – | – | – | COCCOc1cc(F)c2c(Nc3ccc(NC(=O)NCCC4CCCC4)cc3)ncnc2c1 [Example 21] | ≤ 10 |

| IC50 [1] [nM] | IC50 [2, 4] [nM] | IC50 [2, 5] [nM] | IC50 [2, 6] [nM] | IC50 [2, 7] [nM] | IC50 [2, 8] [nM] | Compound | IC50 [3] [nM] |
| --- | --- | --- | --- | --- | --- | --- | --- |
| 100 to 1000 | – | – | 100 to 1000 | 10 to 100 | – | COCCOc1cc(F)c2c(Nc3ccc(NC(=O)CC(=O)N[C@H]4C[C@@H](OC)C4)cc3)ncnc2c1 [Example 116] | 100 to 1000 |
| 10 to 100 | – | – | 10 to 100 | 100 to 1000 | 100 to 1000 | COCCOc1cc(F)c2c(Nc3ccc(NC(=O)CC(=O)N4CCC4(C)C)cc3)ncnc2c1 [Example 167] | 10 to 100 |
| ≤ 10 | – | 10 to 100 | 10 to 100 | ≤ 10 | 100 to 1000 | COCCOc1cc(F)c2c(Nc3ccc(NC(=O)N[C@H]4CC[C@@H](C(F)(F)F)CC4)cc3)ncnc2c1 [Example 36] | 10 to 100 |
| 10 to 100 | – | – | 100 to 1000 | 100 to 1000 | 100 to 1000 | COC[C@H](C)Oc1cc(F)c2c(Nc3ccc(NC(=O)NCCC(C)(C)F)cc3)ncnc2c1 [Example 157] | 100 to 1000 |
| ≤ 10 | – | – | 10 to 100 | ≤ 10 | 100 to 1000 | COCCCOc1cc(F)c2c(Nc3ccc(NC(=O)NCCC(C)(C)F)cc3)ncnc2c1 [Example 120] | 10 to 100 |
| 10 to 100 | – | – | 10 to 100 | 100 to 1000 | 100 to 1000 | COCCOc1cc(F)c2c(Nc3ccc(NC(=O)CC(=O)N4CCC[C@@H]4C)cc3)ncnc2c1 [Example 196] | 10 to 100 |
| 10 to 100 | – | – | – | – | – | COCCOc1cc(F)c2c(Nc3ccc(NC(=O)NCC4COC4)cc3)ncnc2c1 [Example 11] | 100 to 1000 |
| 10 to 100 | – | – | – | – | – | COCCOc1cc(F)c2c(Nc3ccc(NC(=O)NC4CCOCC4)cc3)ncnc2c1 [Example 12] | 100 to 1000 |
| ≤ 10 | – | – | – | – | – | COCCOc1cc(F)c2c(Nc3ccc(NC(=O)NCCC(C)(C)C(F)(F)F)cc3)ncnc2c1 [Example 1, 1-(4-((5-fluoro-7-(2-methoxyethoxy)quinazolin-4-yl)amino)phenyl)-3-(4,4,4-trifluoro-3,3-dimethylbutyl)urea] | ≤ 10 |
| 10 to 100 | – | – | – | – | – | COCCOc1cc(F)c2c(Nc3ccc(NC(=O)N[C@@H]4CCOC4)cc3)ncnc2c1 [Example 14] | 100 to 1000 |
| 100 to 1000 | – | – | – | – | – | COCCOc1cc(F)c2c(Nc3ccc(NC(=O)NCCC(C)(C)OC)nc3)ncnc2c1 [Example 24] | 100 to 1000 |
| ≤ 10 | – | – | – | – | – | COCCOc1cc(F)c2c(Nc3ccc(NC(=O)NCCC4CC(F)(F)C4)cc3)ncnc2c1 [Example 22] | ≤ 10 |
| 10 to 100 | – | – | – | – | – | COCCOc1cc(F)c2c(Nc3ccc(NC(=O)NCC4CCOCC4)cc3)ncnc2c1 [Example 13] | 10 to 100 |
| 10 to 100 | – | – | – | – | – | COCCOc1cc(F)c2c(Nc3ccc(NC(=O)CCC(C)(C)C)cc3)ncnc2c1 [Example 3, N-(4-((5-fluoro-7-(2-methoxyethoxy)quinazolin-4-yl)amino)phenyl)-4,4-dimethylpentanamide] | 100 to 1000 |
| ≤ 10 | – | – | – | – | – | COCCOc1cc(F)c2c(Nc3ccc(NC(=O)NCCC4(C(F)(F)F)CC4)cc3)ncnc2c1 [Example 17] | ≤ 10 |
